Laboratory results published in the supplement of paper PMC10307832.

Tests used:
Experiment in all cases: relative viability (nuclei count vs DMSO), 5 days (fraction); higher = more cells survive
[1] = compound: C1CC(C1)(C(=O)O)C(=O)O.[NH2-].[NH2-].[Pt+2] [Carboplatin] + CC1(C)CCC(c2ccc(Cl)cc2)=C(CN2CCN(c3ccc(C(=O)NS(=O)(=O)c4ccc(N[C@H](CCN5CCOCC5)CSc5ccccc5)c(S(=O)(=O)C(F)(F)F)c4)cc3)CC2)C1 [Navitoclax] (partner 0.5 µM)
Method in brief: (§1)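 For relative viability, nuclei counts in treated wells were divided by those in vehicle wells. Lung cancer cell lines had been pin-tool dosed in 1536-well plates the day after seeding and cultured for 5 days, then fixed and stained in one step (final 0.05% Triton X-100, 1% formaldehyde, 1 ug/ml Hoechst) and imaged at 4×. Doses were one drug alone or a fixed anchor-drug dose plus five library-drug doses (not always all listed) in √10 steps, and values are duplicate-plate medians.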

[2] = compound: CC[C@H](C)N1C=C(C2=C(C=C(C=C21)C3=CN=C(C=C3)N4CCNCC4)C(=O)NCC5=C(C=C(NC5=O)C)C)C [GSK126] + C[C@]1(O)C[C@@H](c2nc(-c3ccc4ccc(-c5ccccc5)nc4c3)c3c(N)nccn32)C1 [Linsitinib] (partner 1 µM)
Method in brief: as §1

[3] = compound: C1CC(C1)(C(=O)O)C(=O)O.[NH2-].[NH2-].[Pt+2] [Carboplatin] + CS(=O)(=O)CCNCc1ccc(-c2ccc3ncnc(Nc4ccc(OCc5cccc(F)c5)c(Cl)c4)c3c2)o1 [Lapatinib] (partner 2 µM)
Method in brief: as §1

[4] = compound: CC[C@H](C)N1C=C(C2=C(C=C(C=C21)C3=CN=C(C=C3)N4CCNCC4)C(=O)NCC5=C(C=C(NC5=O)C)C)C [GSK126] + CC(C)C[C@H](NC(=O)[C@H](Cc1ccccc1)NC(=O)c1cnccn1)B(O)O [Bortezomib] (partner 0.002 µM)
Method in brief: as §1

Cell Line | relative viability ([1]; first compound 0.08 µM) | relative viability ([1]; first compound 0.253 µM) | relative viability ([1]; first compound 0.8 µM) | relative viability ([1]; first compound 2.53 µM) | relative viability ([1]; first compound 8 µM) | relative viability ([2]; first compound 0.08 µM) | relative viability ([2]; first compound 0.253 µM) | relative viability ([2]; first compound 0.8 µM) | relative viability ([2]; first compound 2.53 µM) | relative viability ([2]; first compound 8 µM) | relative viability ([3]; first compound 0.08 µM) | relative viability ([3]; first compound 0.253 µM) | relative viability ([3]; first compound 0.8 µM) | relative viability ([3]; first compound 2.53 µM) | relative viability ([3]; first compound 8 µM) | relative viability ([4]; first compound 0.08 µM) | relative viability ([4]; first compound 0.253 µM) | relative viability ([4]; first compound 0.8 µM) | relative viability ([4]; first compound 2.53 µM) | relative viability ([4]; first compound 8 µM)
NCI-H1437 | 1.07 | 1.14 | 1.09 | 1.05 | 0.97 | 1.07 | 1.07 | 0.954 | 0.983 | 0.938 | 0.869 | 0.832 | 0.838 | 0.887 | 0.641 | 0.528 | 0.504 | 0.442 | 0.45 | 0.518
EMC-BAC-2 | 1.24 | 1.11 | 1.16 | 1.12 | 1.02 | 0.798 | 0.841 | 0.771 | 0.824 | 0.839 | 0.883 | 0.886 | 0.924 | 0.837 | 0.88 | 1.02 | 1.04 | 1.05 | 1.03 | 1.05
NCI-H520 | 1.16 | 1.09 | 0.961 | 1.02 | 0.857 | 1.12 | 1.03 | 0.915 | 1.07 | 1.11 | 1.07 | 0.985 | 1.03 | 0.784 | 0.59 | 0.745 | 0.709 | 0.571 | 0.522 | 0.754
NCI-H1993 | 0.981 | 0.867 | 0.855 | 0.755 | 0.861 | 0.827 | 0.713 | 0.728 | 0.752 | 0.734 | 0.834 | 0.843 | 0.909 | 0.791 | 0.853 | 1.23 | 1.06 | 1.11 | 1.04 | 0.995
HCC-827 | 0.999 | 0.98 | 0.927 | 0.982 | 0.918 | 1.03 | 0.965 | 0.948 | 0.875 | 0.964 | 0.236 | 0.175 | 0.18 | 0.187 | 0.224 | 1.07 | 1.09 | 1.02 | 1.09 | 0.965
NCI-H2087 | 0.944 | 1.03 | 0.944 | 1.01 | 0.895 | 0.979 | 0.942 | 0.931 | 0.885 | 0.967 | 1.22 | 0.968 | 0.86 | 0.969 | 0.833 | 1.02 | 0.668 | 0.94 | 0.941 | 0.907
HARA | 1.1 | 1.16 | 1.08 | 1.07 | 1.09 | 1.01 | 0.898 | 0.872 | 0.976 | 0.836 | 0.816 | 0.842 | 0.841 | 0.654 | 0.695 | 1.15 | 1.14 | 1.09 | 1.11 | 1.05
NCI-H2126 | 0.894 | 0.871 | 0.853 | 0.865 | 0.784 | 0.759 | 0.732 | 0.725 | 0.721 | 0.713 | 0.737 | 0.758 | 0.796 | 0.8 | 0.721 | 1.09 | 1.19 | 1.12 | 1.08 | 1.1
LCLC-103H |  |  |  |  |  | 1.13 | 1.16 | 1.06 | 1.07 | 1.08 |  |  |  |  |  | 1.23 | 0.995 | 0.984 | 1.13 | 1.03
SK-LU-1 | 0.824 | 0.774 | 0.946 | 0.872 | 0.387 | 1.31 | 1.07 | 1.11 | 1.44 | 1.25 | 0.99 | 1.01 | 0.766 | 0.797 | 0.735 | 1.19 | 0.95 | 1.19 | 1.38 | 1.05
EKVX | 0.948 | 1.03 | 0.909 | 0.967 | 0.852 | 1.04 | 1.12 | 0.918 | 1.01 | 0.885 | 0.21 | 0.2 | 0.217 | 0.191 | 0.218 | 1 | 1.07 | 1.08 | 0.992 | 1.06
HCC-366 | 1.08 | 1.12 | 1.13 | 1.02 | 0.753 | 0.684 | 0.634 | 0.602 | 0.678 | 0.846 | 1.08 | 1.01 | 0.988 | 0.963 | 0.863 | 1.1 | 1.05 | 1.03 | 1.06 | 1.05
NCI-H1650 | 1.33 | 1.11 | 1.13 | 1.07 | 0.726 |  |  |  |  |  | 0.944 | 0.878 | 0.825 | 0.795 | 0.661 | 0.233 | 0.25 | 0.185 | 0.183 | 0.19
COR-L23 | 0.992 | 0.883 | 0.838 | 0.84 | 0.443 | 1.06 | 1.12 | 0.918 | 0.912 | 0.99 | 0.946 | 0.919 | 0.67 | 0.728 | 0.419 | 1.08 | 0.979 | 0.942 | 1.01 | 0.992
NCI-H647 | 1.18 | 1.17 | 1.08 | 1.09 | 0.784 | 1.47 | 1.28 | 1.17 | 1.07 | 1.08 | 1.29 | 1.1 | 1.02 | 0.98 | 0.862 | 1.06 | 0.808 | 1.03 | 1.07 | 0.882
LXF-289 | 0.933 | 0.982 | 0.932 | 0.903 | 0.927 | 1.02 | 1 | 0.995 | 0.915 | 1 | 0.908 | 0.936 | 0.91 | 0.89 | 0.891 | 1.04 | 0.996 | 1 | 1.01 | 1.04
